Results on 47 molecules are retold here after PMC12064818, “A general assay platform to study protein pharmacology using ligand-dependent structural dynamics” (Nature Communications, 2025).

In assay [1] the target is FLuc-C-HiBiT (firefly luciferase) (Photinus pyralis, UniProt P08659, form not given/L550V). Kind of assay: SDR assay, FLuc-C-HiBiT. Particulars: SDR max. response, clade S.
In assay [2] the target is FLuc-C-NLuc (firefly luciferase) (Photinus pyralis, UniProt P08659, form not given/L550V). Kind of assay: SDR assay, FLuc-C-NLuc. Particulars: - ATP.
Sequence of FLuc-C-NLuc (firefly luciferase) (P08659 2-550 L550V, form open): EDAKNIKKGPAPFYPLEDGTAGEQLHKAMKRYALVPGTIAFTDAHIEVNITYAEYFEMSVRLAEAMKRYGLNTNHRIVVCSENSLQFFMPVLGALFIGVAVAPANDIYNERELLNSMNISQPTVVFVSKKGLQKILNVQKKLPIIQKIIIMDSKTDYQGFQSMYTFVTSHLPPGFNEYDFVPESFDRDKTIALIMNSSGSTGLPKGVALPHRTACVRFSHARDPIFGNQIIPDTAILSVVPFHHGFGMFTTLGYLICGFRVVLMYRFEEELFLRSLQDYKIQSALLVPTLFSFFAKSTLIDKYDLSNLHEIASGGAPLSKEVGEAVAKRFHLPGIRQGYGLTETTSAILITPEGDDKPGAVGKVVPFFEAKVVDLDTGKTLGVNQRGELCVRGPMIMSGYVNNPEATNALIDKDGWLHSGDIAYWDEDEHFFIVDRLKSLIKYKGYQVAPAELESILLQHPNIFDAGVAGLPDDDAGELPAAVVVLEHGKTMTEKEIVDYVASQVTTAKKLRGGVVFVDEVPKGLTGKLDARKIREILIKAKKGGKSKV
The next assay addresses P. pyralis FLuc (Photinus pyralis, UniProt P08659). Kind of assay: FLuc enzymatic luminescence assay, P. pyralis FLuc. The assay is classed as biochemical. Also noted: CC-v2: scale not given here. Particulars: for Efficacy (%) FLuc E / IC50: FLuc enzymatic assay; for Efficacy (%) FLuc E: Clade S follow-up; for CC-v2 / Efficacy / Hill Coef / Inf Activity / Max Resp / Zero Activity / AC50: Sample Data Type FLuc-Km; for IC50: read-out: IC50 or SDR50 (mM) FLuc E. The procedure:
The enzyme activity of FLuc-N-HiBiT, FLuc-C-HiBiT, and FLuc-C-NLuc was measured similar to P. pyralis firefly luciferase (FLuc) as previously described. […] Compounds and controls were added to each plate as described in Supplementary Data 8 with a Hornet pintool system (Wako Automation). Compounds were incubated with respective enzymes for 30–60 min at room temperature protected from light and covered by solid metal lid to prevent evaporation. […] Luciferin was incubated with FLuc enzyme for 5 min before FLuc activity was then measured on a ViewLux CCD imager (PerkinElmer), with exposure times up to ten seconds with medium to high gain settings. Data were normalized to average no enzyme control as 100% enzyme inhibition and average DMSO neutral control. See Supplementary Table 4 for additional details.
Assays were run in the presence (solid symbols) or absence
(open symbols) of 10 µM ATP. Corresponding SMIL E S for NC GC IDs and source data are provided in
Supplementary Data 3 and as a Source Data file. 10
Supplementary Table 4. Protocol for Firefly luciferase (FLuc) and NanoLuc (NLuc) enzymatic
Supplementary Table 4: Protocol for Firefly luciferase (FLuc) and NanoLuc (NLuc) enzym atic lum inescence assay
Firefly luciferase (FLuc) enzym atic lum inescence assay
Sequence Param eter Value Description
No enzym e control (colum n 1) and enzym e solution (1- 10 nM FLuc enzym e) in FLuc assay
1 Reagent 4 µLbuffer; white/solid bottom , m edium bind, high base plates (Greiner), dispensed with BioRaptr
com pounds transferred to respective colum ns with Pintool
2b Test Com pounds 23 nLconcentration range) in colum ns 5- 48; com pounds transferred to respective wells with
3 Incubation 30 m in Incubate enzym e + com pounds at am bient tem p for 30 m in, protected from light
4 Reagent 3 µLAdd 3 µL of D-luciferin substrate solution to each well (final concentration 10 µM); dispensed
5 Detector ViewLux Read plate lum inescence (Exposure = 1- 10 sec; Gain = Medium -high; Speed = Slow;
Dispensing solution was diluted in 1X PBS, pH 7.4. […]

The target in a further assay is T1, FLuc-C-HiBiT (Photinus pyralis, UniProt P08659).
T1 construct: firefly luciferase with C-terminal HiBiT tag, E. coli expressed
T1 sequence (P08659 whole entry, looked up): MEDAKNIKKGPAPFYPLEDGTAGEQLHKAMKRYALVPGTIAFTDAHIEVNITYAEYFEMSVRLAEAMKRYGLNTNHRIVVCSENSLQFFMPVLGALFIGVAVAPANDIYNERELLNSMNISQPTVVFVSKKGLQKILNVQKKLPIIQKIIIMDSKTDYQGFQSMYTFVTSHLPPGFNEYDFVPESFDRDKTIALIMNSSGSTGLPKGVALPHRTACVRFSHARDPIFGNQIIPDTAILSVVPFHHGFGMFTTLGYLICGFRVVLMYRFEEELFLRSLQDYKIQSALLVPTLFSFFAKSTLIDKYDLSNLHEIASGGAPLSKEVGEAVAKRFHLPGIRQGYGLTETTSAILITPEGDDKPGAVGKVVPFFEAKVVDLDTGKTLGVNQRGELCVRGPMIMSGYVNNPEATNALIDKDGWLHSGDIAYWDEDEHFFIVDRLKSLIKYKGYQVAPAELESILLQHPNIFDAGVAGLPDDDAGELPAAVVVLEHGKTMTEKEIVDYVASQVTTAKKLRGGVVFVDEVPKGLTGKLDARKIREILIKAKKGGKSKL
Kind of assay: biochemical. The note with it: enzyme activity, 10 uM ATP; read-out: IC50 or SDR50 (mM) / FLuc E.

Sequence of P. pyralis FLuc (P08659 whole entry): as the sequence (P08659 whole entry, looked up) above
Sequence of FLuc-C-HiBiT (firefly luciferase) (P08659 2-550 L550V, form open): as the sequence (P08659 2-550 L550V, form open) above

On to `CCC(CC)NC(=O)C1CCN(C(=O)c2ncn3c2COC(c2ccc(F)cc2)C3)CC1` (stereo not shown) [NCGC00430454-01], for which, in assay [1], the “% Activity (max response, + ATP)” value is 9.00% and the “% Activity (max response, - ATP)” value is 0.00%. In addition, the “Efficacy (%) FLuc-C-NLuc SDR (-ATP)” value in assay [2] is on record as 0.00%. On P. pyralis FLuc, the “Efficacy (%) FLuc E” value is listed as -16.84%, the CC-v2 worked out at 4, the Efficacy is -16.84 and the “Hill Coef” value came to 1.51. At P. pyralis FLuc, the “Inf Activity” value is -9.34, the “Max Resp” value is listed as -6.95 and the “Zero Activity” value was determined as 7.50. As for `Cc1ccc(C2Cn3cnc(C(=O)N4CCC(C(=O)NCCC(C)C)CC4)c3CO2)cc1` (stereo not shown) [NCGC00422121-01], in assay [1], the “% Activity (max response, + ATP)” value came to 49.59% and the “% Activity (max response, - ATP)” value is 0.00%. For the same molecule, the “Efficacy (%) FLuc-C-NLuc SDR (-ATP)” value in assay [2] is 0.00%. For the same molecule, at P. pyralis FLuc, the “Efficacy (%) FLuc E” value is -26.32%, the IC50 was 0.0139 mM, the activity was half-maximal at 13.9 µM (AC50) and the CC-v2 is on record as -2.4. Besides, on P. pyralis FLuc, the Efficacy is on record as -26.32, the “Hill Coef” value was determined as 1.21, the “Inf Activity” value is on record as -27.95 and the “Max Resp” value is on record as -21.63. Further, the “Zero Activity” value on P. pyralis FLuc is -1.63.

In the case of `CC(C)NC(=O)C1CCN(C(=O)c2ncn3c2COC(c2ccccc2)C3)CC1` (stereo not shown) [NCGC00449767-01], in assay [1], the “% Activity (max response, + ATP)” value is given as 350.87% and the “% Activity (max response, - ATP)” value is given as 0.00%. Besides, at FLuc-C-HiBiT, the IC50 is 3.51 µM. Besides, the “Efficacy (%) FLuc-C-NLuc SDR (-ATP)” value in assay [2] was determined as 0.00%. In addition, on P. pyralis FLuc, the “Efficacy (%) FLuc E” value is recorded as -88.78%, the IC50 amounted to 0.00248 mM, half-maximal activity (AC50) was put at 2.48 µM and the CC-v2 was -1.1. Further, on P. pyralis FLuc, the Efficacy is on record as -88.78, the “Hill Coef” value turned out to be 1.10, the “Inf Activity” value is -90.78 and the “Max Resp” value was -86.46. Further, the “Zero Activity” value on P. pyralis FLuc was -2.01. Turning to `CC(C)CCNC(=O)C1CCN(C(=O)c2ncn3c2COC(c2ccc(F)cc2)C3)CC1` (stereo not shown) [NCGC00423180-01], in assay [1], the “% Activity (max response, + ATP)” value is on record as 35.19% and the “% Activity (max response, - ATP)” value came to 0.00%. Further, the “Efficacy (%) FLuc-C-NLuc SDR (-ATP)” value in assay [2] is 0.00%. In addition, at P. pyralis FLuc, the “Efficacy (%) FLuc E” value is -22.97%, the CC-v2 came out at 4, the Efficacy is -22.97 and the “Hill Coef” value was 2.25. On P. pyralis FLuc, the “Inf Activity” value is -22.47, the “Max Resp” value is -18.73 and the “Zero Activity” value is 0.50. Regarding `COc1ccc(OCC(=O)Nc2nc(-c3ccc(Br)cc3)ns2)cc1` [NCGC00118248-01], the IC50 on FLuc-C-HiBiT was over 30 µM.

With `Cc1ccc(C(=O)Nc2cccc(C(=O)O)c2)cc1` [MLS000530214-02], the IC50 at FLuc-C-HiBiT is 0.0556 µM. Still for that read-out and setting: the same measure for `Cc1ccc(NC(=O)c2ncn(-c3ccccc3)n2)cc1Cl` [NCGC00107303-01]: 4.95 µM; for `COc1cccc(C(=O)NCCn2ccn3nc(-c4ccc(C)cc4C)cc3c2=O)c1OC` [NCGC00456963-01]: 9.89 µM.

On to `O=C1c2cnc(-c3ccc(F)cc3)nc2OCCN1CC1CC1` [NCGC00413585-01], for which the IC50 on FLuc-C-HiBiT was determined as 14.3 µM. Same read-out and setting: the figure for `COc1cccc(-c2cc(C(=O)NCc3nc(-c4ccccc4)n[nH]3)[nH]n2)c1` [NCGC00437481-01] is 11.1 µM; for `CCC(=O)NCCC1CCN(C(=O)Nc2ccc(C)cc2)CC1` [NCGC00424867-01] it is 12.4 µM. The same measure, in the same setting: the figure for `CCn1c(=O)c(C(=O)Nc2ccc(C(C)=O)cc2)nc2ccccc21` [NCGC00107725-01] is 12.4 µM. The same measure, in the same setting: the figure for `C[S+](=O)([O-])CCn1ncc2cc(OCc3cccc(-c4cccc(O)c4)c3)ccc21` [NCGC00418035-01] is 16.1 µM; for `COc1ccc(-c2noc(Nc3ccc(OC)c(OC)c3)n2)cc1` [NCGC00422322-01] it is 11.1 µM.

In the case of `Cc1cc(Cl)ccc1-n1ncc2c(N3CCCCC3)ncnc21` [NCGC00651954-01], at FLuc-C-HiBiT, the IC50 stood at 4.42 µM. On the same count and under the same terms, the same measure for `Cc1ccc(NC(=O)C2CCN(c3nc(-c4ccc(C(C)C)cc4)no3)CC2)c(Cl)c1` [NCGC00134062-01]: 14 µM; for `COc1cc(OC)c(NC(=O)Cn2c(SCc3ccccc3F)nc3cccnc32)cc1Cl` [NCGC00124034-02]: over 30 µM; for `Cc1ccc(-c2cc3c(=O)n(CCNC(=O)c4ccco4)ccn3n2)c(C)c1` [NCGC00456979-01]: 9.89 µM. Still for that read-out and setting: the figure for `CCc1ccccc1NC(=O)c1cc2c(=O)[nH]c(C)cn2n1` [NCGC00453924-01] is 15.7 µM; for `CC1(Cc2ccc3c(c2)OCO3)CCCN(C(=O)c2ccc3ncsc3c2)C1` (stereo not shown) [NCGC00444241-01] it is 9.89 µM; for `CCCc1noc(-c2nc(-c3ccccc3F)no2)n1` [NCGC00450039-01] it is 9.89 µM. Still for that read-out and setting: the same measure for `CC(=O)c1nn(-c2ccc(OC(F)(F)F)cc2)nc1Nc1ccccc1` [NCGC00116600-01]: 0.7 µM. For the molecule `CCC(=O)Nc1cnc(-c2ccc(C)cc2)nc1` [NCGC00432895-01], the IC50 at FLuc-C-HiBiT came out at 8.81 µM.

For the molecule `CC(C)Oc1ccc(C(=O)Nc2ccc(-c3nc4ccccc4s3)cc2)cc1` [NCGC00119129-01], the IC50 on FLuc-C-HiBiT is over 30 µM. For `O=C(COc1ccc(Cl)cc1)Nc1ccc(-c2nc3cc(Cl)ccc3o2)c(O)c1` [NCGC00099397-01], at FLuc-C-HiBiT, the IC50 worked out at 7 µM.

`CCn1cc(-c2ccc(OC)cc2)cc1C(=O)O` [NCGC00432677-01]: on FLuc-C-HiBiT, the IC50 is 14 µM. On the same count and under the same terms, the figure for `N#Cc1c(-n2ncnc2-c2ccc(Br)cc2)sc2c1CCCCC2` [NCGC00099350-01] is 9.89 µM; for `CCNC(=O)N1CC(Oc2ccc(-c3nc(-c4ccccc4)no3)cc2)C1` [NCGC00441125-01] it is 5.56 µM. Consider `Cc1ccc(NC(=O)Nc2ccc(C)n(CC(=O)NCC(C)C)c2=O)cc1` [NCGC00430796-01], for which the IC50 at FLuc-C-HiBiT was 1.11 µM.

As for `CCCCCSc1nnc(-c2ccc(Br)cc2)o1` [NCGC00098355-01], the IC50 on FLuc-C-HiBiT is over 30 µM.

On to `Brc1ccccc1-c1nc(-c2ccccc2)no1` [NCGC00075547-01], for which the IC50 at FLuc-C-HiBiT is 3.51 µM.

Take `COc1ccc(C(=O)Nc2ccc(-c3nc4ccccc4s3)cc2C)cc1Cl` [NCGC00102365-01]: the IC50 at FLuc-C-HiBiT was over 30 µM.

For `CSCc1nc(-c2ccncc2)nn1Cc1ccc2c(c1)OCO2` [NCGC00447092-01], the IC50 on FLuc-C-HiBiT is over 30 µM. As for `O=C(COc1ccccc1[N+](=O)[O-])Nc1ccc(-c2nc3ccccc3s2)cc1` [NCGC00119127-01], the IC50 at FLuc-C-HiBiT was over 30 µM.

Turning to `Cc1ccc(/C=C/c2nc3ccccc3[nH]2)cc1` [NCGC00139422-01], on FLuc-C-HiBiT, the IC50 is 0.0442 µM. Consider `O=C(O)c1ccc(-c2noc(-c3ccccc3C(F)(F)F)n2)cc1` [NCGC00168105-01], for which the IC50 on FLuc-C-HiBiT came out at 12.4 µM. On the same count and under the same terms, the same measure for `COc1cccc(CNC(=O)Nc2cccc(-c3ccc(N4CCOCC4)nn3)c2)c1` [NCGC00427600-01]: 2.79 µM. The same measure, in the same setting: the figure for `COc1ccc(CN2CCOC[C@H](OCC(=O)N(C)C)C2)cc1` [NCGC00393502-01] is over 30 µM; for `COc1ccc2c(c1)C1(CCN(C(=O)Nc3ccc4c(c3)OCCO4)C1)C(=O)N2C` (stereo not shown) [NCGC00435246-01] it is 11.1 µM. Same read-out and setting: the figure for `COc1ccc(-c2cc(N3CCCC(NC(=O)c4ccc5c(c4)OCO5)C3)[nH]n2)cc1` (stereo not shown) [NCGC00437602-01] is 11.1 µM. Regarding `Cc1ccc(/C=C/C(=O)N2CCC(c3nc4ccccc4o3)CC2)cc1` [NCGC00118334-01], the IC50 at FLuc-C-HiBiT was 11.1 µM. As to `COc1ccccc1OC(C)C(=O)Nc1cccc(-c2nc3ccccc3s2)c1` (stereo not shown) [NCGC00119157-01], on FLuc-C-HiBiT, the IC50 was 8.81 µM. The same measure, in the same setting: the figure for `COc1cc(OC)cc(C(=O)Nc2ccccc2-c2nc3ccccc3s2)c1` [NCGC00098479-01] is over 30 µM; for `O=C(Nc1cccc(-c2nc3ccccc3s2)c1)c1cc2ccccc2oc1=O` [NCGC00688715-01] it is over 30 µM. The same measure, in the same setting: the figure for `CSCC(=O)N[C@H]1CCN2C(=O)c3cc(-c4ccc(SC)cc4)ccc3NC(=O)[C@H]12` [NCGC00391740-01] is 11.1 µM; for `COc1ccc(-c2noc([C@@H]3C[C@@H](O)CN3Cc3cc4ccccc4o3)n2)cc1` [NCGC00400688-01] it is 16.1 µM; for `CC1CCN(c2ncnc3c2cnn3-c2ccccc2)CC1` [NCGC00081403-02] it is 6.24 µM.

For orientation: AC50 means the concentration giving half of the maximal activity seen.
